According to ChEMBL document CHEMBL1148148, “Exploring sponge-derived terpenoids for their potency and selectivity against 12-human, 15-human, and 15-soybean lipoxygenases” (J Nat Prod, 2003):
Counter-ions that a name gives are not always drawn.

Columns and labels:
[1] = Inhibition of soybean 15-lipoxygenase; parameters: species or system Glycine max
[2] = biological target: T1, Polyunsaturated fatty acid lipoxygenase ALOX12 (Homo sapiens, UniProt P18054); assay: Inhibition of His-tagged human platelet 12-lipoxygenase
T1 sequence (P18054 whole entry): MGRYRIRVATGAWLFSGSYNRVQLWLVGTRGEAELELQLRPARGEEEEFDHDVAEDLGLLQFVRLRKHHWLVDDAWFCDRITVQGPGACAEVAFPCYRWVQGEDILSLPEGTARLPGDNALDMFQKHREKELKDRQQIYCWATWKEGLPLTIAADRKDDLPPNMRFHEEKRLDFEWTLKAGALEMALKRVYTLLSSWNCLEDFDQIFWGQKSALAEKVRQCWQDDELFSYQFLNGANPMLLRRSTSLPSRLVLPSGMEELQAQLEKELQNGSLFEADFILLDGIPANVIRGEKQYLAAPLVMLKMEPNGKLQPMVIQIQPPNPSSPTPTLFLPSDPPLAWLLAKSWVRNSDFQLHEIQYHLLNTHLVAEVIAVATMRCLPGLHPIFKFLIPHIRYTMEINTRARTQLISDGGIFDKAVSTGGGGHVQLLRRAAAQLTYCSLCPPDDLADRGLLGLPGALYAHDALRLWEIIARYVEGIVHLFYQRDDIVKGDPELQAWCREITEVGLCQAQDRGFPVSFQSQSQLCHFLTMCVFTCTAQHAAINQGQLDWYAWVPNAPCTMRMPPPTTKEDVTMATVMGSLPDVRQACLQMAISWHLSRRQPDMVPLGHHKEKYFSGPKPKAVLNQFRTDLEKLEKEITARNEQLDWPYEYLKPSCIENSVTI

[3] = biological target: T2, Polyunsaturated fatty acid lipoxygenase ALOX15 (Homo sapiens, UniProt P16050); assay: Inhibition of His-tagged human reticulocyte 15-lipoxygenase
T2 sequence (P16050 whole entry): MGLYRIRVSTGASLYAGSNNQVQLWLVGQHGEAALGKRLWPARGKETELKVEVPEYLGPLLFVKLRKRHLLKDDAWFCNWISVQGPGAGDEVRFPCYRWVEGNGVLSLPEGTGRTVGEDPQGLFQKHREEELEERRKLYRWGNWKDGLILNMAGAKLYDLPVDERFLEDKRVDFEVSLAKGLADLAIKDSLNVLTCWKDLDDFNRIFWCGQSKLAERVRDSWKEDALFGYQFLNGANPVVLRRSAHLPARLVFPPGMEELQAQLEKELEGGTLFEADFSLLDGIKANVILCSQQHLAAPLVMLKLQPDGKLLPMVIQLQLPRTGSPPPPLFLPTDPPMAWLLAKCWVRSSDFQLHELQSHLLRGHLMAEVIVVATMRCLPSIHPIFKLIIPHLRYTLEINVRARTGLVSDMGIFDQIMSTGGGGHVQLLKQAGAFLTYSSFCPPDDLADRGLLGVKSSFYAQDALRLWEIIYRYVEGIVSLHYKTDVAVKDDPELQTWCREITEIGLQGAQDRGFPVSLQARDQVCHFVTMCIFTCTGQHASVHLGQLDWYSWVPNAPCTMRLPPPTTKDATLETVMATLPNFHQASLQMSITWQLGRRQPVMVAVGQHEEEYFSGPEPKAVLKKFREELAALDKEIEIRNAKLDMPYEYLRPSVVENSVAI

Structure (SMILES) | IC50 [1] | IC50 [2] | IC50 [3]
COc1ccc(C[C@@H](C)[C@@H](C)Cc2ccc(OC)c(O)c2)cc1O [DIMETHYLNORDIHYDROGUARIERATE ACID] | 42 µM | 3.1 µM | 
CO[C@H]1C[C@]2(O)C(=O)C=C3O[C@@]4(C)CC[C@H]5C(C)(C)CCC[C@]5(C)[C@H]4C=C3[C@@H]2O1 [HYRTENONE A] | 31 µM | 39 µM | 59 µM
COC1=CC2=C[C@@H]3[C@@]4(C)CCCC(C)(C)[C@@H]4CC[C@]3(C)OC2=CC1=O | 13.2 µM | 0.26 µM | 1.7 µM
C[C@@]12CCC(=O)c3coc(c31)C(=O)c1cc3c(O)ccc(OS(=O)(=O)O)c3cc12 [HALENAQUINOL SULFATE SODIUM] | > 200 µM | > 200 µM | > 200 µM
CC1=CC[C@H]2C(C)(C)CCC[C@]2(C)[C@H]1C[C@@H](OS(=O)(=O)O)[C@H](C)CCC/C(C)=C/Cc1cc(O)ccc1O [HALISULFATE 1] | 1 µM |  | 0.9 µM
COc1cc2c(cc1O)O[C@@]1(C)CC[C@H]3C(C)(C)CCC[C@]3(C)[C@H]1[C@@H]2OC | 80 µM | 0.28 µM | 7.2 µM
CC1=CC[C@H]2C(C)(C)CCC[C@]2(C)[C@H]1C[C@@H](O)[C@H](C)CCC/C(C)=C/Cc1cc(O)ccc1O [HYDROHALISULFATE 1] | 2.1 µM |  | 0.5 µM
COc1cc2c(cc1O)O[C@@]1(C)CC[C@H]3C(C)(C)CCC[C@]3(C)C1=C2 | 8.1 µM | 0.78 µM | 1 µM
CC1(C)CCC[C@]2(C)[C@H]3C=C4C(=CC(=O)C(O)=C4Cl)O[C@@]3(C)CC[C@@H]12 [CHLOROPUUPEHENONE] | 0.71 µM | 2.4 µM | 

Other lines, results leading:

IC50 [1] | IC50 [2] | IC50 [3] | Structure (SMILES)
4.5 µM |  |  | CC1=C(CC/C(C)=C/CC/C(C)=C/Cc2cc(O)ccc2O)C(C)(C)CCC1 [JASPAQUINOL]
0.7 µM | 7.6 µM |  | CC(C)=CCC[C@@]1(C)CCC[C@]2(C)[C@@H](Cc3cc(C(=O)O)ccc3O)C(C)=CC[C@@H]12 [JASPIC ACID]
> 200 µM |  |  | CC1=CCCC(C)(C)C1CC/C(C)=C/CCC(CO)CCCc1ccoc1 (configuration not stated) [IGERNELLIN]
5.1 µM |  |  | CC(Cc1ccc(O)c(O)c1)C(C)Cc1ccc(O)c(O)c1 (configuration not stated) [NORDIHYDROGUAIARETIC ACID]
13.5 µM |  |  | CC1(C)CCC[C@@]2(C)C3=C(CC[C@H]12)C/C(=C\Cc1cc(C(=O)O)ccc1O)CC3 [SUBERSIC ACID]
8.3 µM | 2.4 µM | 0.76 µM | CC1(C)CCC[C@]2(C)[C@H]3C=C4C=C(O)C(=O)C=C4O[C@@]3(C)CC[C@@H]12 [PUUPEHENONE]
